In ChEMBL document CHEMBL4371076 (J Med Chem, 2019):
Calls of active or inactive are those of the source. The rule behind the calls is not given here.

Experiments:
[1] = target: T1, Sodium channel protein type 9 subunit alpha (Homo sapiens, UniProt Q15858); test: Inhibition of recombinant human Nav1.7 expressed in HEK293 cells at -70 mV holding potential by patch clamp electrophysiology method; assay type: cell-based
[2] = Metabolic stability in human liver microsomes assessed as parent compound remaining at 0.5 uM after 10 mins; assay type: ADME, Microsome; settings: read-out: Stability
[3] = Metabolic stability in rat liver microsomes assessed as parent compound remaining at 0.5 uM after 10 mins; assay type: ADME, Microsome; settings: read-out: Stability
[4] = Metabolic stability in mouse liver microsomes assessed as parent compound remaining at 0.5 uM after 10 mins; assay type: ADME, Microsome; settings: read-out: Stability
[5] = Fraction unbound in mouse plasma; assay type: ADME, cell-free
[6] = Permeability of the compound at pH 5.5 by PAMPA; assay type: ADME; settings: read-out: permeability
[7] = Permeability of the compound at pH 7.4 by PAMPA; assay type: ADME; settings: read-out: permeability
Cytochrome P450 2B6 [8] = target: T2, Cytochrome P450 2B6 (Homo sapiens, UniProt P20813); test: Inhibition of CYP2B6 in human liver microsomes; assay type: ADME; settings: human, microsomes
T2 sequence (P20813 whole entry): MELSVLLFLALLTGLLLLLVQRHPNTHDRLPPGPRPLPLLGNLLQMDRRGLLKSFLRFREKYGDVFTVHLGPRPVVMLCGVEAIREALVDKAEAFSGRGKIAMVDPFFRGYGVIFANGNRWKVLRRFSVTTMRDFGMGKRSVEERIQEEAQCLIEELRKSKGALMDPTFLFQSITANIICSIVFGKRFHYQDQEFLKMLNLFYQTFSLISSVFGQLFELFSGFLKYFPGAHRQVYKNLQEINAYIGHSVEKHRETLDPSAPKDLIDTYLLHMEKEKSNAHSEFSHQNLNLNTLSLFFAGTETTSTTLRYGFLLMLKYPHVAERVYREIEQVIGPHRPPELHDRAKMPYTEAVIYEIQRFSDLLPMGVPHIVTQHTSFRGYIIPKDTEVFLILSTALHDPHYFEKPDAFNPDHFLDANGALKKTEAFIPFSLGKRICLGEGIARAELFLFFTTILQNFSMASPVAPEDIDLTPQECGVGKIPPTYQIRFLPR

Cytochrome P450 2C8 [9] = target: T3, Cytochrome P450 2C8 (Homo sapiens, UniProt P10632); test: Inhibition of CYP2C8 in human liver microsomes; assay type: ADME; settings: human, microsomes
T3 sequence (P10632 whole entry): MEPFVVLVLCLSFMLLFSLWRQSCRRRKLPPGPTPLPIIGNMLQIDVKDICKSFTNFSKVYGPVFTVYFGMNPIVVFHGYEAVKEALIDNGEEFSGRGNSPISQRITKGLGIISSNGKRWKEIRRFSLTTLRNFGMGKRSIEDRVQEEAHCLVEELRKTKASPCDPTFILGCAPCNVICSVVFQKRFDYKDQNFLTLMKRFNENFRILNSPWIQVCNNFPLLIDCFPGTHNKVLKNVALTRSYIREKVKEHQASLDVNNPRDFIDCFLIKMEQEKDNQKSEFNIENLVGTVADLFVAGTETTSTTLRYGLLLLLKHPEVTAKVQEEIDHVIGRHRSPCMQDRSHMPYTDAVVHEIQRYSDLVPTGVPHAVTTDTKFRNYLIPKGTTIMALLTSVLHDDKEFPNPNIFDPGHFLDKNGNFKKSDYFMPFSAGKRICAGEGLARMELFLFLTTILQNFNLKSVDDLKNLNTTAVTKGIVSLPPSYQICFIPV

Cytochrome P450 2C9 [10] = target: T4, Cytochrome P450 2C9 (Homo sapiens, UniProt P11712); test: Inhibition of CYP2C9 in human liver microsomes; assay type: ADME; settings: human, microsomes
Cytochrome P450 2C19 [11] = target: T5, Cytochrome P450 2C19 (Homo sapiens, UniProt P33261); test: Inhibition of CYP2C19 in human liver microsomes; assay type: ADME; settings: human, microsomes
Cytochrome P450 2D6 [12] = target: T6, Cytochrome P450 2D6 (Homo sapiens, UniProt P10635); test: Inhibition of CYP2D6 in human liver microsomes; assay type: ADME; settings: human, microsomes
Cytochrome P450 3A4 [13] = target: T7, Cytochrome P450 3A4 (Homo sapiens, UniProt P08684); test: Inhibition of CYP3A4 in human liver microsomes; assay type: ADME; settings: human, microsomes
Cytochrome P450 2B6 [14] = target: T2, Cytochrome P450 2B6; test: Time-dependant inhibition of CYP2B6 in human liver microsomes; assay type: ADME
Cytochrome P450 2C8 [15] = target: T3, Cytochrome P450 2C8; test: Time-dependant inhibition of CYP2C8 in human liver microsomes; assay type: ADME
Cytochrome P450 2C9 [16] = target: T4, Cytochrome P450 2C9; test: Time-dependant inhibition of CYP2C9 in human liver microsomes; assay type: ADME
Cytochrome P450 2C19 [17] = target: T5, Cytochrome P450 2C19; test: Time-dependant inhibition of CYP2C19 in human liver microsomes; assay type: ADME
Cytochrome P450 2D6 [18] = target: T6, Cytochrome P450 2D6; test: Time-dependant inhibition of CYP2D6 in human liver microsomes; assay type: ADME
Cytochrome P450 3A4 [19] = target: T7, Cytochrome P450 3A4; test: Time-dependant inhibition of CYP3A4 in human liver microsomes; assay type: ADME
Mus musculus [20] = test: Analgesic activity in CD1 mouse model of formalin-induced nociception assessed as reduction in formalin-evoked paw flinching/licking response during first phase at 30 mg/kg, po pretreated for 30 mins followed by formalin treatment and measured during first 5 mins post formalin injection; assay type: functional, organism-based
Mus musculus [21] = test: Analgesic activity in CD1 mouse model of formalin-induced nociception assessed as reduction in formalin-evoked paw flinching/licking response during second phase at 30 mg/kg, po pretreated for 30 mins followed by formalin treatment and measured during 15 to 45 mins post formalin injection; assay type: functional, organism-based
[22] = Toxicity in CD1 mouse model of formalin-induced nociception assessed as prostration or sedation at 30 mg/kg, po; assay type: organism-based; settings: in vivo
[23] = Toxicity in CD1 mouse model of formalin-induced nociception assessed as hypothermia at 30 mg/kg, po; assay type: organism-based; settings: in vivo
[24] = target: T8, Sodium channel protein type 9 subunit alpha (Mus musculus, UniProt Q62205); test: Inhibition of Nav1.7 in mouse DRG neurons at -70 mV holding potential by patch clamp electrophysiology method
[25] = Plasma concentration in CD1 mouse model of formalin-induced nociception at 3 mg/kg, po; assay type: ADME, organism-based; settings: read-out: Cp, in vivo
[26] = Unbound plasma concentration in CD1 mouse model of formalin-induced nociception at 3 mg/kg, po; assay type: ADME, organism-based; settings: in vivo
[27] = target: T1, Sodium channel protein type 9 subunit alpha; test: Inhibition of human Nav1.7 expressed in HEK293 cells after 600 secs at -60 mV holding potential by ion works barracuda population patch clamp method; assay type: cell-based
[28] = target: Sodium channel protein type 5 subunit alpha (Homo sapiens, UniProt Q14524); test: Inhibition of human Nav1.5 expressed in HEK293 cells after 600 secs at -50 mV holding potential by ion works barracuda population patch clamp method; assay type: cell-based
[29] = Fraction unbound in human plasma; assay type: ADME, cell-free
[30] = Permeability from apical to basolateral side in human Caco2 cells; assay type: ADME, cell-based; settings: Caco-2, read-out: permeability
[31] = Permeability from basolateral to apical side in human Caco2 cells; assay type: ADME, cell-based; settings: Caco-2, read-out: permeability
[32] = Efflux ratio of permeability in human Caco2 cells; assay type: ADME, cell-based; settings: Caco-2
[33] = target: T8, Sodium channel protein type 9 subunit alpha; test: Inhibition of recombinant mouse Nav1.7 expressed in HEK293 cells at -70 mV holding potential by patch clamp electrophysiology method; assay type: cell-based
[34] = Plasma concentration in CD1 mouse model of formalin-induced nociception at 30 mg/kg, po; assay type: ADME, organism-based; settings: read-out: Cp, in vivo
[35] = Unbound plasma concentration in CD1 mouse model of formalin-induced nociception at 30 mg/kg, po; assay type: ADME, organism-based; settings: in vivo
[36] = Drug uptake in DRG neurons of CD1 mouse model of formalin-induced nociception at 30 mg/kg, po; assay type: ADME, organism-based, DRG neuron; settings: in vivo, read-out: Drug uptake
[37] = Unbound drug level in DRG neurons of CD1 mouse model of formalin-induced nociception at 30 mg/kg, po; assay type: ADME, organism-based, DRG neuron; settings: in vivo

T6 sequence (P10635 whole entry): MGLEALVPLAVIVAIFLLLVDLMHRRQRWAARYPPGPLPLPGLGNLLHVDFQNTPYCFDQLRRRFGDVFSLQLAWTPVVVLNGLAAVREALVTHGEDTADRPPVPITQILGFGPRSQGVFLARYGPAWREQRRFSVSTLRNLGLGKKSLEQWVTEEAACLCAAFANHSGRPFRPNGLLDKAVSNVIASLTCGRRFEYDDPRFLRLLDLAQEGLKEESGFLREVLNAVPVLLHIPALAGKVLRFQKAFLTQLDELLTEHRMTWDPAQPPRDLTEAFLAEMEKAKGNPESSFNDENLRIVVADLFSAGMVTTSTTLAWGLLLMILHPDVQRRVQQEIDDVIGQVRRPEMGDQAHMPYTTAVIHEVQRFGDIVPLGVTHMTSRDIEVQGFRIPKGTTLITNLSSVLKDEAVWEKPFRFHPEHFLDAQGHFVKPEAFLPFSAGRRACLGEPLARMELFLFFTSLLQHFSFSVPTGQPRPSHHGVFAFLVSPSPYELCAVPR
T4 sequence (P11712 whole entry): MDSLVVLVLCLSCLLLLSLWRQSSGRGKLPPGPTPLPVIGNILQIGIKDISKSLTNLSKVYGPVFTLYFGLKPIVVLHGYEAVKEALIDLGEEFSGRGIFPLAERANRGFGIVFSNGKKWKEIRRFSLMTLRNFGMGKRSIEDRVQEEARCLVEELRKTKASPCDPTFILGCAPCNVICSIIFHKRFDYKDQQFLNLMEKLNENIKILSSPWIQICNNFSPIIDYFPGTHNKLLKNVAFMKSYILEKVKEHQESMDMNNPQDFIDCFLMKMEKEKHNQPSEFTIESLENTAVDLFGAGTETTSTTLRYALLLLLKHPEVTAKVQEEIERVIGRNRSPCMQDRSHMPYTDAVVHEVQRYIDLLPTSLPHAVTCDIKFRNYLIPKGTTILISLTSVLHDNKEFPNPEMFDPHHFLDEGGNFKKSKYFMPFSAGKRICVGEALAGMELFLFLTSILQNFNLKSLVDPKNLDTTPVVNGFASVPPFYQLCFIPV
T5 sequence (P33261 whole entry): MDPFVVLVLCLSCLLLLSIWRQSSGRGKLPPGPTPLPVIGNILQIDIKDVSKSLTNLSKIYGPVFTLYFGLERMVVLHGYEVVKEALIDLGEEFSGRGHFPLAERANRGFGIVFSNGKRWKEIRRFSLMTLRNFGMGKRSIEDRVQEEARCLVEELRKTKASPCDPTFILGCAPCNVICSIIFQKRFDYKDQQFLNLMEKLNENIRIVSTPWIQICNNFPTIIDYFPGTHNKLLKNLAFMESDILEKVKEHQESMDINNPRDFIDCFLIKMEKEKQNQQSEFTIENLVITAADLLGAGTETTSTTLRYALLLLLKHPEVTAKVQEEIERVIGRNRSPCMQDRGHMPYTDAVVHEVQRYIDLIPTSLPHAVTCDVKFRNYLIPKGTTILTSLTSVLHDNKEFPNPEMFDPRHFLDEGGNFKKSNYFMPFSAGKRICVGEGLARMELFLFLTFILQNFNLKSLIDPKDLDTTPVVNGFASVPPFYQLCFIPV
T7 sequence (P08684 whole entry): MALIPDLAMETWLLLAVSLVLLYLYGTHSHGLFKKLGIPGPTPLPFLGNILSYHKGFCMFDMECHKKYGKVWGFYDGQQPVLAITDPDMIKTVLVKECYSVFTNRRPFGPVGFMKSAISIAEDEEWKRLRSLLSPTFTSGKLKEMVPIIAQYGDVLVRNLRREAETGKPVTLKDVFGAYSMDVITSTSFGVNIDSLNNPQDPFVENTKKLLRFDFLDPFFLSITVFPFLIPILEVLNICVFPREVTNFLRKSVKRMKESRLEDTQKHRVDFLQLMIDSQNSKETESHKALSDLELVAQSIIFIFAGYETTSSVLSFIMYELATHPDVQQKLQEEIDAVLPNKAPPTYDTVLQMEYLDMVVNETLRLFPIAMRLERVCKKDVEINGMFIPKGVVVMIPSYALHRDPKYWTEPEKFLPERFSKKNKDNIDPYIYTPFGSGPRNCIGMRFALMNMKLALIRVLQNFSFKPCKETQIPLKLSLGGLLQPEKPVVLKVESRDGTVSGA
T1 sequence (Q15858 whole entry): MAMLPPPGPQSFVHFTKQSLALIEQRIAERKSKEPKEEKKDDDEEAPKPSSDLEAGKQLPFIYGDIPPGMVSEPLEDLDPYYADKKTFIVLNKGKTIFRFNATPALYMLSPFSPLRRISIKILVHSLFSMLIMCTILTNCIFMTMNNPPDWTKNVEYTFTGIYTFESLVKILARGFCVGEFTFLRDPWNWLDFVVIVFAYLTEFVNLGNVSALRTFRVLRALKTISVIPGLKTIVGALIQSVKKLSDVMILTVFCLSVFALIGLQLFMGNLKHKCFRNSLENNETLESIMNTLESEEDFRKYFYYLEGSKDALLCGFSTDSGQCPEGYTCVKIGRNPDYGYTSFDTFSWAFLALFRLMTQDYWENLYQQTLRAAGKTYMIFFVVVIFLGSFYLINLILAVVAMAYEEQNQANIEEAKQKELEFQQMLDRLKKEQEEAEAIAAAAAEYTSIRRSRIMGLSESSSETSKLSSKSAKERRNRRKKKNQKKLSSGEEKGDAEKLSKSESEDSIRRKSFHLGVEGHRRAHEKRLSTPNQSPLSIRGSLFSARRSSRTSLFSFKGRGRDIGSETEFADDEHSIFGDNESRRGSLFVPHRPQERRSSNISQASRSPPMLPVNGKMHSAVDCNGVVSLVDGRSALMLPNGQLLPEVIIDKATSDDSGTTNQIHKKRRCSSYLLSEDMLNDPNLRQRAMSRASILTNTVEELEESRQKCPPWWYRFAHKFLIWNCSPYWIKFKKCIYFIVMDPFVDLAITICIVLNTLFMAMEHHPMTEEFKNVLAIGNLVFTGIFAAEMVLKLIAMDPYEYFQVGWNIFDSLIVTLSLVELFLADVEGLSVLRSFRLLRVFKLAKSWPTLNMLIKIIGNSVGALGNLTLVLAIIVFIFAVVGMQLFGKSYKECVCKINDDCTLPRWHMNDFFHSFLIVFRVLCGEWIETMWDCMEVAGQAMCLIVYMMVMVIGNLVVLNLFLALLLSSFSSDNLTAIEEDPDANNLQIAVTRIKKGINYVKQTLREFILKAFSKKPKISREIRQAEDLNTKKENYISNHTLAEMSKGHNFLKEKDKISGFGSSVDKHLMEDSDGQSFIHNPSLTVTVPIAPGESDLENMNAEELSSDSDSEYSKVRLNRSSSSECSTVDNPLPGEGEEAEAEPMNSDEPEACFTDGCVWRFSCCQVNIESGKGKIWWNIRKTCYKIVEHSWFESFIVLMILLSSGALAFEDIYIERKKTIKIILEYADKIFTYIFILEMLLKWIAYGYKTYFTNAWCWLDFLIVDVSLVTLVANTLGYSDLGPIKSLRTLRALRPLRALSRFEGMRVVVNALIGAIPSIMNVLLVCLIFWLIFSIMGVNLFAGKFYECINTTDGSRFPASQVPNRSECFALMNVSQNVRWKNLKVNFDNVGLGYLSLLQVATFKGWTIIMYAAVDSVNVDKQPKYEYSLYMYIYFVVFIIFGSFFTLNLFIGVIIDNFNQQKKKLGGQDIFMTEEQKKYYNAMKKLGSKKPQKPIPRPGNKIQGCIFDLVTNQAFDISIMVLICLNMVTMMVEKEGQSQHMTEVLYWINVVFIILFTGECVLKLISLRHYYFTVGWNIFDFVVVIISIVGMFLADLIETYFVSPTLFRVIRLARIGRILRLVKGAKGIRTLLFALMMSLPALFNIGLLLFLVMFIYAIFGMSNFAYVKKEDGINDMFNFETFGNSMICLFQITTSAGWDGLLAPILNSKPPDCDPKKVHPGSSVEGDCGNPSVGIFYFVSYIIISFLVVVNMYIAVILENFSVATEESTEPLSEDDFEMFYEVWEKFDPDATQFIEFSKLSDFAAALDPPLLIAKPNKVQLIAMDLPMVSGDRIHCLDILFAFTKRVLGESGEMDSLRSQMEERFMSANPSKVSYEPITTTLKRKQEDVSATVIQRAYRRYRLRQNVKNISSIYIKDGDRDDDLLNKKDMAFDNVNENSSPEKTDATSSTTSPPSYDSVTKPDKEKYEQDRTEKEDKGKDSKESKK

Row | IC50 [1] [nM] | remaining at 10 min, 0.5 µM [2] [%] | remaining at 10 min, 0.5 µM [3] [%] | remaining at 10 min, 0.5 µM [4] [%] | fraction unbound [5] | Papp [6] [×10⁻⁶ cm/s] | Papp [7] [×10⁻⁶ cm/s] | inhibition (INH) (Cytochrome P450 2B6 [8]) | inhibition (INH) (Cytochrome P450 2C8 [9]) | inhibition (INH) (Cytochrome P450 2C9 [10]) | inhibition (INH) (Cytochrome P450 2C19 [11]) | inhibition (INH) (Cytochrome P450 2D6 [12]) | inhibition (INH) (Cytochrome P450 3A4 [13]) | TDI (Cytochrome P450 2B6 [14]) | TDI (Cytochrome P450 2C8 [15]) | TDI (Cytochrome P450 2C9 [16]) | TDI (Cytochrome P450 2C19 [17]) | TDI (Cytochrome P450 2D6 [18]) | TDI (Cytochrome P450 3A4 [19]) | Compound | Activity (Mus musculus [20]) | also measured
1 | 11 | 100 | 100 | 100 | 0.002 | 116 | 41.7 | Not Active | Not Active | Not Active | Not Active | Not Active | Not Active | Not Active | Not Active | Not Active | Not Active | Not Active | Not Active | CC(C)COc1ncc(-c2nn(C)c3cc(C(=O)NS(C)(=O)=O)ccc23)cc1Cl | inactive | Activity (Mus musculus [21]): inactive; Activity [22]: Toxic; Activity [23]: Toxic; IC50 [24]: 12 nM; concentration [25]: 280 nM; Cp(f) [26]: 0.56 nM
2 | 3.3 | 100 | 37 | 100 | 0.002 | 33.5 | 31 | Not Active | Not Active | Not Active | Not Active | Not Active | Not Active | Not Active | Not Active | Not Active | Not Active | Not Active | Not Active | CC(C)COc1ncc(-c2cn(C)c3cc(C(=O)NS(=O)(=O)C4CC4)c(F)cc23)cc1Cl | inactive | IC50 [27]: 230 nM; IC50 [28]: 5100 nM; fraction unbound [29]: < 0.001; Papp A→B [30]: 3.4 ×10⁻⁶ cm/s; Papp B→A [31]: 10.2 ×10⁻⁶ cm/s; efflux ratio [32]: 3; IC50 [33]: 10 nM; Activity (Mus musculus [21]): inactive; Activity [22]: Non-Toxic; Activity [23]: Non-Toxic; concentration [34]: 58000 nM; Cp(f) [35]: 116 nM; concentration [36]: 11000 nM
3 |  |  |  |  |  |  |  |  |  |  |  |  |  |  |  |  |  |  |  | O=S(=O)(Nc1nccs1)c1cc(Cl)c(NCC23CCCN2CCC3)cc1F | inactive | concentration [34]: 1400 nM; Cp(f) [35]: 340 nM; concentration [36]: 340 nM; Drug uptake(free) [37]: 340 nM
